Data set [1] concerns the target T1, Solute carrier family 22 member 1 (Rattus norvegicus, UniProt Q63089).
T1 sequence (Q63089 whole entry): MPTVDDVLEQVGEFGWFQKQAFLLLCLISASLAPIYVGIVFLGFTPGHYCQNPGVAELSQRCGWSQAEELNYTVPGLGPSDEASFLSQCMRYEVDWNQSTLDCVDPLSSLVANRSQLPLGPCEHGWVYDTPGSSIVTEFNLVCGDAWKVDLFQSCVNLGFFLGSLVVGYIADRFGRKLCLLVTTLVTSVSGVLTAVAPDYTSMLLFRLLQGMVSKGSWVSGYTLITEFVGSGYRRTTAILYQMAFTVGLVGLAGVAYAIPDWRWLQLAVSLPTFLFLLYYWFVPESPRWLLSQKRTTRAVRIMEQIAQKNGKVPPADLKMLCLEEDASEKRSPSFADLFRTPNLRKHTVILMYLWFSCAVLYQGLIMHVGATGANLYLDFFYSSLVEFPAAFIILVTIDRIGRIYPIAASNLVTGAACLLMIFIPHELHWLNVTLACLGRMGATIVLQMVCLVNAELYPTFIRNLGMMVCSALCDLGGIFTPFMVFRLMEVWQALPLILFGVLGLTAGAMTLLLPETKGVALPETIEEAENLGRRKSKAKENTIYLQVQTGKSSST
Description: TP_TRANSPORTER: inhibition of TEA uptake (basolateral to cell) in OCT1-expressing MDCK cells. In kind it is functional, cell-based.

Data set [2] addresses T2, Solute carrier family 22 member 2 (Rattus norvegicus, UniProt Q9R0W2).
T2 sequence (Q9R0W2 whole entry): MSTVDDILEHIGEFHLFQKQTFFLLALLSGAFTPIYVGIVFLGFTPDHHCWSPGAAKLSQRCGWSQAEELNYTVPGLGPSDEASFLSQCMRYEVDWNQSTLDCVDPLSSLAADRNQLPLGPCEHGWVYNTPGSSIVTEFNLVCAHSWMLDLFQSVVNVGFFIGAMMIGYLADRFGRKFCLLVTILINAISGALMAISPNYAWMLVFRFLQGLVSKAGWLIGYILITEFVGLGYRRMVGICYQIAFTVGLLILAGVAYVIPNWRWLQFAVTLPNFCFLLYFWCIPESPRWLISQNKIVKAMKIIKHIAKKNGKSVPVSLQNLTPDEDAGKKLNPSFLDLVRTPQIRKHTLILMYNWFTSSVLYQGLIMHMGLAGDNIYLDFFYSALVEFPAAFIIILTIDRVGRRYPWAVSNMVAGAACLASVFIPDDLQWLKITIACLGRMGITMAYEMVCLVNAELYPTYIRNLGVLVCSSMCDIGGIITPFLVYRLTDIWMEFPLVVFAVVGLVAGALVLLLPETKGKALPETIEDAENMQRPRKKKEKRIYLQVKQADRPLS
Kind of data set: TP_TRANSPORTER: inhibition of TEA uptake (basolateral to cell) in OCT2-expressing MDCK cells. The data set is classed as functional, cell-based.

Data set [3] deals with T2, Solute carrier family 22 member 2. Kind of data set: TP_TRANSPORTER: inhibition of TEA uptake (apical to cell) in OCT2-expressing MDCK cells.
Substrate in data set [4]: CC[N+](CC)(CC)CC
Kind of data set: cells, lysate or membranes named.

The source of these data is ChEMBL document CHEMBL2074081, “Functional characteristics and membrane localization of rat multispecific organic cation transporters, OCT1 and OCT2, mediating tubular secretion of cationic drugs” (J Pharmacol Exp Ther, 1998).

Consider `C[n+]1ccc(-c2ccccc2)cc1`, for which the Ki (in general, the equilibrium dissociation constant of an inhibitor or competing ligand from its target) came out at 0.8 µM in data set [1] and 1.8 µM in data set [2].
For `CN/C(=N/CCSCc1nc[nH]c1C)NC#N` [CIMETIDINE] the same measures were 5.7 µM and 9.4 µM.
For `N=C(N)N` [GUANIDINE] the same measures were 724 µM and 714 µM.
Consider `CN1CCC[C@H]1c1cccnc1` [NICOTINE], for which the figures for the Ki in data set [1] and in data set [2] were 64.3 µM and 50.5 µM, respectively.
On to `CNC(=O)c1cccnc1` [NICOTINYL METHYLAMIDE], for which the Ki worked out at 669 µM in data set [1] and 403 µM in data set [2].
`C=C[C@H]1C[N@@]2CC[C@H]1C[C@@H]2[C@@H](O)c1ccnc2ccc(OC)cc12` [QUINIDINE] returned a Ki in data set [2] of 19.1 µM. This counts as double-digit micromolar.
Regarding `CC[N+](CC)(CC)CC` [TETRYLAMMONIUM], the Ki was 52.2 µM in data set [3] and 46.6 µM in data set [1].

B1: Solute carrier family 22 member 2 (Rattus norvegicus) (protein)
chain: T2 sequence (Q9R0W2 whole entry)
B1: the Km (usually the substrate concentration at which the rate is half of its maximum) in data set [4] amounted to 45 µM.

B2: Solute carrier family 22 member 1 (Rattus norvegicus) (protein)
chain: T1 sequence (Q63089 whole entry)
Turning to B2, the Km in data set [4] came to 38 µM.
